Source: a melting point compilation (Tetko et al.; mined from patent text by program, amines drawn as free bases though some values may be those of a salt)

Compared with `CN(Cc1cc2c(=O)c(C(=O)NCc3ccc(Cl)cc3)cn(C)c2o1)CC(O)c1cccs1` (stereo unspecified), `CN(CCCOc1ccc(CC2SC(=O)NC2=O)cc1)c1nc2ccccc2o1` (stereo unspecified) is higher in melting point: 145 to 147 °C for the first, 171 to 173 °C for the second.

Compared with `O=C(O)CCC(Cc1ccccc1Br)(C(=O)C=Cc1ccc(Cl)cc1)c1ccccc1` (stereo unspecified), `O=c1cc(C=Cc2ccc(Cl)cc2)oc(-c2ccccc2)c1` is lower in melting point: 210 to 214 °C for the first, 169 to 171 °C for the second.

Compared with `O=C(CCCc1ccccc1)c1cc(O)c(O)c([N+](=O)[O-])c1`, `O=C(CC(Cc1cccc2ccccc12)C(=O)O)NCCc1ccccc1` (stereo unspecified) is higher in melting point: 118 to 119 °C for the first, 131 to 135 °C for the second.

First: CCn1ncc2c(NCc3cccnc3)c3ccccc3nc21
Second: Cn1c(CO)nc2ccc(OCc3ccccc3)nc21
The melting point of the first is higher: 282 to 284 °C for the first, 133 to 135 °C for the second.

First: O=C(c1cc(C(F)(F)F)cc(C(F)(F)F)c1)N1CCC(N2CCN(Cc3ccccc3)CC2)CC1Cc1ccccc1 (stereo unspecified)
Second: Fc1ccc(-c2[nH]c(C3CCN(Cc4ccccc4)CC3)nc2-c2ccncc2)cc1
The melting point of the first is lower: 144 °C for the first, 212 to 215 °C for the second.

First: O=C(O)C1=Cc2cc(Cl)ccc2N(Cc2ccc([N+](=O)[O-])cc2)C1C(F)(F)F (stereo unspecified)
Second: CCNC(=O)c1ccc(-c2ccc3c(c2)C(Nc2ccc(Cl)cc2)CC(C)N3C(C)=O)cc1 (stereo unspecified)
The melting point of the first is higher: 225 to 228 °C for the first, 134 °C for the second.

First: O=C(NC(=S)Nc1cccc(Oc2ccccc2)c1)c1cccnc1
Second: O=C(Oc1ccccc1)c1ccc2[nH]nnc2c1
The melting point of the first is lower: 144 to 146 °C for the first, 156 to 160 °C for the second.

Compared with `CCC(NC(=O)c1ccc(Cl)cc1)NC(=NC#N)Nc1cccnc1` (stereo unspecified), `O=C(NC(=O)C(Br)CBr)Nc1ccc(Cl)cc1` (stereo unspecified) is lower in melting point: 181 to 183 °C for the first, 162 to 163 °C for the second.

First: COc1cccc(CC(=O)O)c1OCCCc1cn(-c2ccc(NS(C)(=O)=O)cn2)nc1C(C)C
Second: COc1cccc([C@H]2O[C@H](CC(=O)Nc3ccc4oc(C(=O)O)c(OC(C)C)c4c3)C(=O)N(CC(C)(C)CO)c3ccc(Cl)cc32)c1OC
The melting point of the first is higher: 176 to 177 °C for the first, 174 to 175 °C for the second.

First: CC(=CCc1c(C)nc(N)nc1Cl)c1cc(Cl)ccc1Cl
Second: CNc1nc(C)c(-c2ccnc(Nc3ccc(Cl)c(CO)c3)n2)s1
The melting point of the first is lower: 97 to 100 °C for the first, 191 to 193 °C for the second.

Compared with `Cc1ccc(C(=O)Oc2ccc3c(OC(=O)c4ccc(C)c(O)c4)c4ccccc4cc3c2OC(=O)c2ccc(C)c(O)c2)cc1O`, `COc1ccc(C=C2Oc3ccc(C(=O)O)cc3C2=O)c(OC)c1OC` is lower in melting point: 251 °C for the first, 247 to 249 °C for the second.

First: CCCCCCCCCCOc1ccc(C(=O)Nc2cc(CCC(=O)CC3CCCCCC3)ccc2C(C)(C)C)cc1
Second: O=[N+]([O-])c1ccc(NCCS(=O)(=O)NCCCOc2cccc(CN3CCCCC3)c2)cc1
The melting point of the first is lower: 98 to 99 °C for the first, 140 to 142 °C for the second.

First: O=S(=O)(O)c1ccc(Oc2ccc(-n3ccnc3)cc2)cc1
Second: C[C@@H](N(CC(=O)O)C(=O)c1ccc(OC(F)(F)F)cc1)[C@](O)(Cn1cncn1)c1ccc(F)cc1F (relative stereo)
The melting point of the first is lower: 80 °C for the first, 99 to 105 °C for the second.

First: COC(=O)c1cccc(OC)c1I
Second: COc1ccc(C2CCN(C(=O)C(N)=O)CC2)cc1CC1CCCC1
The melting point of the first is lower: 58 to 61 °C for the first, 117 to 118 °C for the second.

Compared with `CC(O)c1sc(S(N)(=O)=O)cc1S(C)(=O)=O` (stereo unspecified), `Cc1nc(N)nc(N)c1CCC(C)c1cccc(-c2ccc(C(F)(F)F)cc2)c1` (stereo unspecified) is lower in melting point: 121 to 127 °C for the first, 67 to 68 °C for the second.

Compared with `O=C(CN1CCOCC1)Nc1ccc2c(c1)Cc1cn[nH]c1-2`, `Cc1ccc(-c2nc(N3CCOCC3)c3c(C)c(C#N)sc3n2)cc1` is higher in melting point: 141 to 148 °C for the first, 206 to 207 °C for the second.

Compared with `COc1ccccc1CN[C@H]1CCCN(CC=Cc2ccccc2)[C@H]1c1ccccc1` (relative stereo), `CN(C)C(=O)Cn1c(-c2cccc(C(F)(F)F)c2)nc2cccnc21` is higher in melting point: 54 to 58 °C for the first, 136 to 138 °C for the second.

Compared with `CN1C(=O)N(c2cc(F)c(C#N)cc2F)C(=O)CC1(N)C(F)(F)F` (stereo unspecified), `Cc1nn(-c2c(Cl)cc(C(F)(F)F)cc2Cl)cc1C#C[Si](C)(C)C` is lower in melting point: 115 °C for the first, 76 to 78 °C for the second.
